In patent US20130108563A1, “COMPOSITIONS COMPRISING AT LEAST ONE AQUEOUS PHASE AND AT LEAST ONE FATTY PHASE WHICH COMPRISES AVERMECTIN COMPOUNDS” (Galderma S.A., priority 2006, published 2013):

Experiments:
[1] = 1-month stability of ivermectin in oily-phase excipients; format: physicochemical
Procedure: (§1) Maximum solubility of ivermectin at T1 hour at ambient temperature (AT) in various oily-phase excipients and 1 month stability at AT and T40° C.

[2] = Maximum solubility of ivermectin in oily-phase excipients; format: physicochemical; settings: T1 hour, ambient temperature
Procedure: as §1

ivermectin
1-month stability at 40° C. ([1]; in Diisopropyl adipate): Stable
1-month stability at AT ([1]; in Diisopropyl adipate): Stable
1-month stability at 40° C. ([1]; in PPG 15 stearyl ether): Stable
1-month stability at AT ([1]; in PPG 15 stearyl ether): Stable
Maximum solubility of ivermectin % (w/w) ([2]; in C12-C15 alkyl benzoate): 1.6 % (w/w)
Maximum solubility of ivermectin % (w/w) ([2]; in Diisopropyl adipate): 10.4 % (w/w)
Maximum solubility of ivermectin % (w/w) ([2]; in Guerbet alcohol): 2.5 % (w/w)
Maximum solubility of ivermectin % (w/w) ([2]; in PPG 15 stearyl ether): 3.3 % (w/w)
